# Reference: patent publication US20080319065A1, “Systemic and Intrathecal Effects of a Novel Series of Phospholipase A2 Inhibitors on Hyperalgesia and Spinal Pge2 Release” (The Regents of the University of California, priority 2005, published 2008)
# Columns and labels:
# [1] = biological target: T1, Group IVA cPLA2 (GIVA PLA2) (Homo sapiens, UniProt P47712); test: In vitro Group IVA cPLA2 mixed micelle assay; assay type: biochemical
# T1 sequence (P47712 1-749): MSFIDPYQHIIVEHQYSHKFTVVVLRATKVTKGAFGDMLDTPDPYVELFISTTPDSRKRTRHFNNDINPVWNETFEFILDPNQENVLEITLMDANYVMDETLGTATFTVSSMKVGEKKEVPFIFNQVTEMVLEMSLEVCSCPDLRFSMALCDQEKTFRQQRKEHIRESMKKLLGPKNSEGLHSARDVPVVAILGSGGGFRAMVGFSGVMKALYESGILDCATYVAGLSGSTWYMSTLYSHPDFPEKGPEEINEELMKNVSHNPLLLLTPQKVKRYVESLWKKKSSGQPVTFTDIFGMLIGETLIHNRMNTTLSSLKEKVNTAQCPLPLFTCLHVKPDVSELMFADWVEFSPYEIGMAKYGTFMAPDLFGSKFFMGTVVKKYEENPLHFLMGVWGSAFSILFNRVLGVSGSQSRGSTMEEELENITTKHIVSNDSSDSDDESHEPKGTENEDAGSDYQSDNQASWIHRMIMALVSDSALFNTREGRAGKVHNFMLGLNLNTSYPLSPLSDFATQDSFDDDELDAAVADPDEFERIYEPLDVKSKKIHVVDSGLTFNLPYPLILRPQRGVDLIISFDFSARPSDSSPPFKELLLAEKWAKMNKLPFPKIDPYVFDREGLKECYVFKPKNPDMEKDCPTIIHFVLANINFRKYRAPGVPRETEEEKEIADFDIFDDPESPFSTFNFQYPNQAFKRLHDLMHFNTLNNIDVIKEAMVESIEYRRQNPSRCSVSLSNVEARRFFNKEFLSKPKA
# [2] = biological target: T2, Group VIA iPLA2 (GVIA PLA2) (Homo sapiens, UniProt O60733); test: In vitro Group VIA iPLA2 mixed micelle assay; assay type: biochemical
# T2 sequence (O60733 1-806): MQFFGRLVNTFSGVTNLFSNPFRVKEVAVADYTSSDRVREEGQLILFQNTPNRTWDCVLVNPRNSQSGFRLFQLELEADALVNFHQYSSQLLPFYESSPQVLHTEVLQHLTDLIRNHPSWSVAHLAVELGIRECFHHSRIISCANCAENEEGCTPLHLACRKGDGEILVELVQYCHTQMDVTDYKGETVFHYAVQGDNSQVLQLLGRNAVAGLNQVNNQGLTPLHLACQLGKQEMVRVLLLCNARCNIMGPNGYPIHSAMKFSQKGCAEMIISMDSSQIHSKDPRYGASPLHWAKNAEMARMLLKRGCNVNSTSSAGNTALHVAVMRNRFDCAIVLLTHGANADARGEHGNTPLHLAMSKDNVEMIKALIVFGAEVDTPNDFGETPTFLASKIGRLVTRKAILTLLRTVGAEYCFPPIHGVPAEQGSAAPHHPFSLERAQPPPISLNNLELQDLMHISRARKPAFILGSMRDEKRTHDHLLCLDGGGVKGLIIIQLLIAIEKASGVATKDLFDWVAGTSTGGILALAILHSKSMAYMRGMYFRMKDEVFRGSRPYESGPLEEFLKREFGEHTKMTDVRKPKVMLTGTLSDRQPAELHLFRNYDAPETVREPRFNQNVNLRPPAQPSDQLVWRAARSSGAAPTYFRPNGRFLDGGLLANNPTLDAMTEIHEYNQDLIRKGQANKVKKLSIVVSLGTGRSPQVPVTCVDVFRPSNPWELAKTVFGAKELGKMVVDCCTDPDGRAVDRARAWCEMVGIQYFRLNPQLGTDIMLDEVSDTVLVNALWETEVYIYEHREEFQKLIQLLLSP
Compound,"inhibition of GIVA PLA2 (cPLA2), in words [1]","Group IVA XI(50), class ([1]; at 0.091 mole fraction)",Inhibition of GIVA PLA2 ([1]; at highest dose),"inhibition of GVIA PLA2 (iPLA2), in words [2]","Group VIA XI(50), class ([2]; at 0.091 mole fraction)",Inhibition of GVIA PLA2 ([2]; at highest dose),Group IVA XI(50) (mole fraction) ([1]; Table 1b),Group VIA XI(50) (mole fraction) ([2]; Table 1b)
CCC(=O)C(=O)NCCCC(=O)OC [AX010],does not significantly inhibit GIVA PLA2,N.D. (25% inhibition or less at 0.091 mole fraction),ND (negligible inhibition (0-25%) at highest dose),limited inhibition of GVIA PLA2,L.D. (between 25% and 50% inhibition at 0.091 mole fraction),LD (limited inhibition (25-50%) at highest dose),,
"CCCCCCCCCCCCCCC(=O)C(=O)NCCCC(=O)OCC [AX048, Ethyl 4-[(2-oxohexadecanoyl)amino]butanoate]",,,,,,,0.022 ± 0.009 mole fraction,0.027 ± 0.009 mole fraction
